Assay results taken from ChEMBL document CHEMBL1140590, “3-(2'-Bromopropionylamino)-benzamides as novel S-phase arrest agents” (Bioorg Med Chem Lett, 2007).

Columns and labels:
[1] = system: MOLT-3; assay: Antiproliferative activity against human Molt3 cells; type: functional, cell-based
[2] = system: MCF7; assay: Antiproliferative activity against human MCF7 cells; type: functional, cell-based
[3] = system: Bel-7402; assay: Antiproliferative activity against human Bel7402 cells; type: functional, cell-based
[4] = system: DU-145; assay: Antiproliferative activity against human DU145 cells; type: functional, cell-based
[5] = system: PC-3; assay: Antiproliferative activity against human PC3 cells; type: functional, cell-based
[6] = Antiproliferative activity against human DND1 cells; type: functional, cell-based
[7] = system: CEM (Homo sapiens); assay: Cell cycle arrest in human CEM cells by accumulation at S phase after 6 hrs at 6.14 uM
[8] = system: CEM (Homo sapiens); assay: Cell cycle arrest in human CEM cells by accumulation at S phase after 24 hrs at 6.14 uM
[9] = system: CEM (Homo sapiens); assay: Cell cycle arrest in human CEM cells by accumulation at S phase after 6 to 12 hrs at 6.14 uM

Compound `COc1cc(NC(=O)c2cc(NC(=O)C(C)Br)ccc2F)ccn1` (stereo unspecified) has an IC50 [1] of 500 nM, an IC50 [2] of 2200 nM and an IC50 [3] of 2700 nM. The IC50 [4] was 2350 nM, the IC50 [5] was 2420 nM and the IC50 [6] was 2570 nM.

With `COc1cc(C(=O)Nc2cccc(NC(=O)C(C)Br)c2)cc(OC)c1OC` (stereo unspecified) the IC50 [1] was 5660 nM.

Compound `COc1ccc(NC(=O)c2cc(NC(=O)C(C)Br)ccc2F)cc1OC` (stereo unspecified) has an IC50 [1] of 470 nM.

Work on `COc1cc(NC(=O)c2ccc(Cl)c(NC(=O)C(C)Br)c2)cc(OC)c1OC` (stereo unspecified) yielded an IC50 [1] of 2250 nM.

`COc1cc(NC(=O)c2cc(NC(=O)C(C)Br)ccc2F)ccc1O` (stereo unspecified) gave an IC50 [1] of 850 nM.

`CC(Br)C(=O)Nc1cccc(C(=O)NCCN(C)C)c1` (stereo unspecified) gave an IC50 [1] of over 10000 nM.

Compound `COc1ccc(NC(=O)c2cccc(NC(=O)C(C)Br)c2)cc1OC` (stereo unspecified) has an IC50 [1] of 120 nM, an IC50 [2] of 1230 nM and an IC50 [3] of 2330 nM. For the same compound, the IC50 [4] was 1870 nM, the IC50 [5] was 2360 nM and the IC50 [6] was 1400 nM. For the same compound, the Activity [7] was 52.9%, the Activity [8] was 61.9% and the Activity [9] was 62.7%.

In the case of `COc1cc(NS(=O)(=O)c2cccc(NC(=O)C(C)Br)c2)cc(OC)c1OC` (stereo unspecified), the IC50 [1] is reported as 1270 nM.

For `CCCNC(=O)c1cccc(NC(=O)C(C)Br)c1` (stereo unspecified), the IC50 [1] was 8940 nM.

`COc1cc(NC(=O)c2ccc(NC(=O)C(C)Br)cc2)cc(OC)c1OC` (stereo unspecified) gave an IC50 [1] of 1790 nM.

With `COc1cc(NC(=O)c2cc(NC(=O)C(C)Br)ccc2F)cc(OC)c1OC` (stereo unspecified) the IC50 [1] was 420 nM, the IC50 [2] was 2110 nM and the IC50 [3] was 2050 nM. The IC50 [4] was 2030 nM, the IC50 [5] was 2180 nM and the IC50 [6] was 4160 nM.

In the case of `COc1cc(NC(=O)c2cc(NC(=O)C(C)Br)ccc2O)cc(OC)c1OC` (stereo unspecified), the IC50 [1] is reported as 1080 nM.

Compound `COc1ccc2nc(NC(=O)c3cccc(NC(=O)C(C)Br)c3)sc2c1` (stereo unspecified) has an IC50 [1] of 1660 nM.

`CCOc1ccc(NC(=O)c2cc(NC(=O)C(C)Br)ccc2F)cc1` (stereo unspecified) gave an IC50 [1] of over 10000 nM.

For `COc1ccc(NC(=O)c2cccc(NC(=O)C(C)Br)c2)cc1` (stereo unspecified), the IC50 [1] was 800 nM.

`CCCCNC(=O)c1cccc(NC(=O)C(C)Br)c1` (stereo unspecified) gave an IC50 [1] of over 10000 nM.

Compound `CC(Br)C(=O)Nc1cccc(C(=O)Nc2ccc(F)cc2)c1` (stereo unspecified) has an IC50 [1] of 2000 nM.

`COc1cc(NC(=O)c2cccc(NC(=O)C(C)Br)c2)cc(OC)c1` (stereo unspecified) showed an IC50 [1] of 610 nM.

`COc1cc(NC(=O)c2cccc(NC(=O)C(C)Br)c2)cc(OC)c1OC` (stereo unspecified) showed an IC50 [1] of 670 nM, an IC50 [2] of 1470 nM and an IC50 [3] of 2640 nM. The IC50 [4] was 1930 nM, the IC50 [5] was 2460 nM and the IC50 [6] was 2260 nM.

`COc1cc(NC(=O)c2ccccc2NC(=O)C(C)Br)cc(OC)c1OC` (stereo unspecified) showed an IC50 [1] of 5720 nM.

For `CC(Br)C(=O)Nc1cccc(C(=O)N2CCN(C)CC2)c1` (stereo unspecified), the IC50 [1] was over 10000 nM.

For `COc1cc(NC(=O)c2ccc(F)c(NC(=O)C(C)Br)c2)cc(OC)c1OC` (stereo unspecified), the IC50 [1] was 2200 nM.

For `CC(Br)C(=O)Nc1cccc(C(=O)NC(N)=O)c1` (stereo unspecified), the IC50 [1] was 1600 nM.

In the case of `COc1cc([C@@H]2c3cc4c(cc3[C@H](O)[C@H]3COC(=O)[C@H]23)OCO4)cc(OC)c1OC` [PODOFILOX], the IC50 [6] is reported as 12 nM.

`COc1cc(NC(=O)c2cccc(NC(=O)C(C)Br)c2)ccc1O` (stereo unspecified) gave an IC50 [1] of 510 nM, an IC50 [2] of 860 nM and an IC50 [3] of 5260 nM. It also gave an IC50 [4] of 6480 nM, an IC50 [5] of 3130 nM and an IC50 [6] of 1220 nM.

For `CC(Br)C(=O)Nc1cccc(C(=O)Nc2ccc3[nH]c4ccccc4c3c2)c1` (stereo unspecified), the IC50 [1] was 1510 nM.

`CC(Br)C(=O)Nc1cccc(C(=O)Nc2ccc3c(c2)OCO3)c1` (stereo unspecified) showed an IC50 [1] of 620 nM.

`COc1ccc(/C=C\c2cc(OC)c(OC)c(OC)c2)cc1O` [COMBRETASTATIN A4] gave an IC50 [1] of 90 nM, an IC50 [4] of 9 nM and an IC50 [6] of 3 nM.

For `COc1ccc(C(=O)Nc2cc(OC)c(OC)c(OC)c2)cc1NC(=O)C(C)Br` (stereo unspecified), the IC50 [1] was 4240 nM.

In the case of `COc1ccc(NC(=O)c2cc(NC(=O)C(C)Br)ccc2F)cc1` (stereo unspecified), the IC50 [1] is reported as 250 nM, the IC50 [2] is reported as 1390 nM and the IC50 [3] is reported as 3370 nM. For the same compound, the IC50 [4] was 6450 nM, the IC50 [5] was 2430 nM and the IC50 [6] was 2560 nM.

`COc1cc(NC(=O)NC(=O)c2cccc(NC(=O)C(C)Br)c2)cc(OC)c1OC` (stereo unspecified) gave an IC50 [1] of 4220 nM.
